Source: patent US20240279202A1 (NURIX THERAPEUTICS, INC., priority 2021, published 2024)

Biological target: T1, ITK (Homo sapiens, UniProt Q08881)
T1 sequence (Q08881 1-620): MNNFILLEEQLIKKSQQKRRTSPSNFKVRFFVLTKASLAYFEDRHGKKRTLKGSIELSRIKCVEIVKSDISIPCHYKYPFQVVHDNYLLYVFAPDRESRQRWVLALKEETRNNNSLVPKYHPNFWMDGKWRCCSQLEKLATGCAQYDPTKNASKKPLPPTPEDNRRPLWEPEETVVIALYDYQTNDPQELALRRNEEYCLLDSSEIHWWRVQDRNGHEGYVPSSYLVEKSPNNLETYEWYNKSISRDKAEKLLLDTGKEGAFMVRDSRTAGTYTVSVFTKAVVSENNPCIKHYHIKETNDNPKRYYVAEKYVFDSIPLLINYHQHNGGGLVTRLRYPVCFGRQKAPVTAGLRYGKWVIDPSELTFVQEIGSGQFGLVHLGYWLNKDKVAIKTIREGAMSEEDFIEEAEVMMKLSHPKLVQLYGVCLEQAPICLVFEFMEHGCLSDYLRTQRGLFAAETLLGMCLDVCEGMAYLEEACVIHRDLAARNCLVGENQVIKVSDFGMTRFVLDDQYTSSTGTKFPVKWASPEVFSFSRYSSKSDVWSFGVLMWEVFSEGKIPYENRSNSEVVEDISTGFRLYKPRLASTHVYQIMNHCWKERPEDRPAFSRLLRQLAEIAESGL
Test: ITK degradation HiBiT assay
Assay type: cell-based
Design: expressed in transfected cells; host or cells: Molt4 (ATCC CRL-1552), monoclonal clone 1C10, engineered to carry the HiBiT tag
Settings: 4 hrs; for Dmax: MOLT-4, C-terminal HiBiT-tagged Molt4 cells; for DC50: C-terminal HiBiT-tagged Molt4 cells
Protocol: Itk Degradation Hibit Assay
Compounds provided herein were assayed in vitro with ITK HiBit cell lines. Compound dilution series (11-point, 5 fold dilutions in DMSO, columns 2-12 with replicate in rows A/B, C/D, E/F, G,H at 2000× the final required concentrations were prepared in 96 well plates (Falcon, cat. no. 353077). Column 1, rows A-H were control DMSO. The 2000× solutions ranged from 2 mM to 1.024 nM (final assay concentration range 1 μM to […]). The 2000× solutions were added to cells in […], for a final DMSO concentration of 0.5% and final assay compound concentration of 1×. For the cells, C-terminal HiBiT-tagged Molt4 cells (ATCC CRL-1552, monoclonal cell line clone 1C10) were plated at 1×10^6 cells/mL, 100 μL/well ([…]) in complete RPMI (10% FBS, 1% L-glutamine). The cells were incubated with compound 10 and compound 17 for 4 hrs at […]/6% CO2.
Following incubation, 100 μL of complete Nano-Glo HiBiT Lytic Detection Reagent (Nano-Glo HiBiT Lytic Buffer with 1:50 Nano-Glo HiBiT Lytic Substrate and 1:100 LgBiT Protein; Promega cat. no. N3040) was added. Cells were further incubated for 10 min at room temperature (RT). Luminescence units (LU) were read on an EnVision plate reader (Perkin Elmer, 0.1 sec per well). Percent ITK remaining per sample was calculated as follows: […]
Using Graphpad Prism, % ITK remaining values were plotted as a function of compound concentration. To determine DC50 and Dmax values, resulting curves were fit to the Prism curve-fitting equation “log(inhibitor) vs response—Variable slope (four parameters)” (reported best fit value IC50 used as DC50). ITK was measured with antibody-based MSD (Meso-Scale Discovery) assays shown below.

Row | Structure (SMILES) | Dmax | DC50
1 | C[C@H]1CN(C(=O)c2ccc3cc(-c4n[nH]c5c4C[C@@H]4C(F)(F)[C@]4(C)C5)[nH]c3c2)CCN1CC1CCN(c2ccc(C3CCC(=O)NC3=O)cc2F)CC1 (mixture of isomers) [Compound 155] | 84% | –
2 | C[C@@]12Cc3[nH]nc(C(=O)Nc4cnn(C5CCN(C(=O)[C@H]6CC[C@H](Cn7ncc8cc(C9CCC(=O)NC9=O)ccc87)CC6)CC5)c4)c3C[C@@H]1C2(F)F (mixture of isomers) [Compound 164] | 86% | –
3 | C[C@@]12Cc3[nH]nc(C(=O)Nc4cnn(C5CCN(C(=O)C6CCC(Cn7cc8cc(C9CCC(=O)NC9=O)ccc8n7)CC6)CC5)c4)c3C[C@@H]1C2(F)F (mixture of isomers) [Compound 165] | 86% | –
4 | C[C@@]12Cc3[nH]nc(C(=O)Nc4cnn(C5CCN(C(=O)CC6CCN(c7ccc(C8CCC(=O)NC8=O)cn7)CC6)CC5)c4)c3C[C@@H]1C2(F)F (mixture of isomers) [Compound 166] | 88% | –
5 | C[C@@]12Cc3[nH]nc(C(=O)Nc4cnn(C5CCN(C(=O)C6CCN(c7ccc(C8CCC(=O)NC8=O)cn7)C6)CC5)c4)c3C[C@@H]1C2(F)F (mixture of isomers) [Compound 167] | 86% | –
6 | C[C@@]12Cc3[nH]nc(C(=O)Nc4cnn(C5CCN(C(=O)C6CCC(Oc7ccc(C8CCC(=O)NC8=O)cn7)CC6)CC5)c4)c3C[C@@H]1C2(F)F (mixture of isomers) [Compound 168] | 88% | –
7 | C[C@@]12Cc3[nH]nc(C(=O)Nc4cnn([C@H]5CCN(CC6CCN(c7ccc([C@H]8CCC(=O)NC8=O)cc7)CC6)C[C@@H]5F)c4)c3C[C@@H]1C2(F)F (single isomer, unassigned) [Compound 95] | 90% | 0.6 nM
8 | C[C@@]12Cc3[nH]nc(C(=O)Nc4cnn([C@@H]5CCN(CC6CCN(c7ccc([C@H]8CCC(=O)NC8=O)cc7)CC6)C[C@H]5F)c4)c3C[C@@H]1C2(F)F (single isomer, unassigned) [Compound 96] | 89% | 1.1 nM
9 | CC1(C)CCc2c(-c3cc4ccc(N5CCC6(CCN(Cc7ccc8c(c7)C(=O)N(C7CCC(=O)NC7=O)C8=O)CC6)C5=O)cc4[nH]3)n[nH]c2C1 (centres unmarked) [Compound 8, 5-((2-(2-(6,6-dimethyl-4,5,6,7-tetrahydro-1H-indazol-3-yl)-1H-indol-6-yl)-1-oxo-2,8-diazaspiro[4.5]decan-8-yl)methyl)-2-(2,6-dioxopiperidin-3-yl)isoindoline-1,3-dione] | 92% | 7.8 nM
10 | C[C@@H](C(=O)N(C)c1ccc2cc(-c3n[nH]c4c3C[C@@H]3C(F)(F)[C@]3(C)C4)[nH]c2c1)N1CCN(CC2CCN(c3cc(C4CCC(=O)NC4=O)ccn3)CC2)CC1 (stereo partly drawn) [Compound 23, (2S)—N-(2-((4aS,5aR)-5,5-difluoro-5a-methyl-1,4,4a,5,5a,6-hexahydrocyclopropa[f]indazol-3-yl)-1H-indol-6-yl)-2-(4-((1-(4-(2,6-dioxopiperidin-3-yl)pyridin-2-yl)piperidin-4-yl)methyl)piperazin-1-yl)-N-methylpropanamide] | 82% | < 0.001 nM
11 | C[C@@]12Cc3[nH]nc(-c4cc5ccc(N6CCC7(CCN(C(=O)C8CCN(c9ccc(C%10CCC(=O)NC%10=O)cn9)CC8)CC7)C6=O)cc5[nH]4)c3C[C@@H]1C2(F)F (stereo partly drawn) [Compound 24, 3-(6-(4-(2-(2-((4aS,5aR)-5,5-difluoro-5a-methyl-1,4,4a,5,5a,6-hexahydrocyclopropa[f]indazol-3-yl)-1H-indol-6-yl)-1-oxo-2,8-diazaspiro[4.5]decane-8-carbonyl)piperidin-1-yl)pyridin-3-yl)piperidine-2,6-dione] | – | 0.01 nM
12 | CC1(C)CCc2c(-c3cc4ccc(C(=O)N5CCN(CC6CCN(c7ccc8c(c7)CN(C7CCC(=O)NC7=O)C8=O)CC6)CC5)cc4[nH]3)n[nH]c2C1 (centres unmarked) [Compound 26, 3-{5-[4-({4-[2-(6,6-dimethyl-1,4,5,7-tetrahydroindazol-3-yl)-1H-indole-6-carbonyl]piperazin-1-yl}methyl)piperidin-1-yl]-1-oxo-3H-isoindol-2-yl}piperidine-2,6-dione] | 88% | < 0.01 nM
13 | C[C@@]12Cc3[nH]nc(C(=O)Nc4cnn([C@H](c5ccccc5)C5CN(C(=O)N6CCC7(CCN(c8ccc9c(c8)C(=O)N(C8CCC(=O)NC8=O)C9=O)CC7)C6)C5)c4)c3C[C@@H]1C2(F)F (some centres unmarked) [Compound 53] | 94% | 3.3 nM
14 | CC1(C)CCc2c(-c3cc4ccc(C(=O)N5CCC(CC6CCN(c7ccc(C8CCC(=O)NC8=O)cn7)CC6)CC5)cc4[nH]3)n[nH]c2C1 (centres unmarked) [Compound 54, 3-(6-(4-((1-(2-(6,6-dimethyl-4,5,6,7-tetrahydro-1H-indazol-3-yl)-1H-indole-6-carbonyl)piperidin-4-yl)methyl)piperidin-1-yl)pyridin-3-yl)piperidine-2,6-dione] | – | 11 nM
15 | C[C@@]12Cc3[nH]nc(C(=O)Nc4cnn(C5CN(C(=O)C6CN(c7ccc(C8CCC(=O)NC8=O)cn7)C6)C5)c4)c3C[C@@H]1C2(F)F (stereo partly drawn) [Compound 55, (4aS,5aR)-N-(1-(1-(1-(5-(2,6-dioxopiperidin-3-yl)pyridin-2-yl)azetidine-3-carbonyl)azetidin-3-yl)-1H-pyrazol-4-yl)-5,5-difluoro-5a-methyl-1,4,4a,5,5a,6-hexahydrocyclopropa[f]indazole-3-carboxamide] | – | 1.8 nM
16 | Cn1c(=O)n(C2CCC(=O)NC2=O)c2cccc(N3CCC(C(=O)N4CC(n5cc(NC(=O)c6n[nH]c7c6C[C@@H]6C(F)(F)[C@]6(C)C7)cn5)C4)CC3)c21 (stereo partly drawn) [Compound 56, (4aS,5aR)-N-(1-(1-(1-(1-(2,6-dioxopiperidin-3-yl)-3-methyl-2-oxo-2,3-dihydro-1H-benzo[d]imidazol-4-yl)piperidine-4-carbonyl)azetidin-3-yl)-1H-pyrazol-4-yl)-5,5-difluoro-5a-methyl-1,4,4a,5,5a,6-hexahydrocyclopropa[f]indazole-3-carboxamide] | 64% | 0.013 nM

Second part, the compound after the results:

Row | Dmax | DC50 | Structure (SMILES)
17 | 80% | – | Cn1c(=O)n(C2CCC(=O)NC2=O)c2ccc(N[C@H]3CC[C@H](C(=O)N4CCC(n5cc(NC(=O)c6n[nH]c7c6C[C@@H]6C(F)(F)[C@]6(C)C7)cn5)CC4)CC3)cc21 (mixture of isomers) [Compound 169]
18 | 88% | – | Cn1c(=O)n(C2CCC(=O)NC2=O)c2cccc(N3CCC(C(=O)N4CCC(n5cc(NC(=O)c6n[nH]c7c6C[C@@H]6C(F)(F)[C@]6(C)C7)cn5)CC4)CC3)c21 (mixture of isomers) [Compound 171]
19 | 87% | – | C[C@@]12Cc3[nH]nc(C(=O)Nc4cnn(CC5CCN(C(=O)C6CCN(c7ccc(C8CCC(=O)NC8=O)cc7)CC6)CC5)c4)c3C[C@@H]1C2(F)F (mixture of isomers) [Compound 173]
20 | 65% | – | CC1(C)CCc2c(C(=O)Nc3cnn([C@H]4CC[C@H](C(=O)N5CCN(c6ccc(C7CCC(=O)NC7=O)cn6)CC5)CC4)c3)n[nH]c2C1 (mixture of isomers) [Compound 175]
21 | 76% | – | CC1(C)CCc2c(C(=O)Nc3cnn([C@H]4CC[C@H](C(=O)N5CCN(c6ccc(C7CCC(=O)NC7=O)cc6)CC5)CC4)c3)n[nH]c2C1 (mixture of isomers) [Compound 176]
22 | 88% | – | C[C@@]12Cc3[nH]nc(C(=O)Nc4cnn(C5CCC(C(=O)N6CCN(c7ccc(C8CCC(=O)NC8=O)cc7)CC6)CC5)c4)c3C[C@@H]1C2(F)F (mixture of isomers) [Compound 179]
23 | 72% | – | C[C@@]12Cc3[nH]nc(C(=O)Nc4cnn(C5CCN(C(=O)C6CCN(c7ccc(C(=O)NC8CCC(=O)NC8=O)nc7)CC6)CC5)c4)c3C[C@@H]1C2(F)F (mixture of isomers) [Compound 180]
24 | 89% | 1.4 nM | C[C@@]12Cc3[nH]nc(-c4cc5cc(F)c(C(=O)N6CCN(CC7CCN(c8ccc([C@H]9CCC(=O)NC9=O)cc8)CC7)CC6)cc5[nH]4)c3C[C@@H]1C2(F)F (single isomer, unassigned) [Compound 220]
